Laboratory results taken from article PMC7288026, “Novel Class of Chalcone Oxime Ethers as Potent Monoamine Oxidase-B and Acetylcholinesterase Inhibitors” (Molecules, 2020).
Values joined by “and” are separate entries in the source; they are usually repeats but may differ in a detail not shown here. Equal values may be shown once. Read-outs that look alike come from different tables or passages of the source.

How the values were obtained:
recombinant hMAO-A = biological target: T1, recombinant hMAO-A (Homo sapiens, UniProt P21397); assay: MAO-A inhibition assay (kynuramine substrate); format: biochemical; conditions: for IC50: mean ± standard error of duplicates, reference compounds after 30 min preincubation with enzyme
T1 construct: purchased Sigma-Aldrich
T1 sequence (P21397 1-527): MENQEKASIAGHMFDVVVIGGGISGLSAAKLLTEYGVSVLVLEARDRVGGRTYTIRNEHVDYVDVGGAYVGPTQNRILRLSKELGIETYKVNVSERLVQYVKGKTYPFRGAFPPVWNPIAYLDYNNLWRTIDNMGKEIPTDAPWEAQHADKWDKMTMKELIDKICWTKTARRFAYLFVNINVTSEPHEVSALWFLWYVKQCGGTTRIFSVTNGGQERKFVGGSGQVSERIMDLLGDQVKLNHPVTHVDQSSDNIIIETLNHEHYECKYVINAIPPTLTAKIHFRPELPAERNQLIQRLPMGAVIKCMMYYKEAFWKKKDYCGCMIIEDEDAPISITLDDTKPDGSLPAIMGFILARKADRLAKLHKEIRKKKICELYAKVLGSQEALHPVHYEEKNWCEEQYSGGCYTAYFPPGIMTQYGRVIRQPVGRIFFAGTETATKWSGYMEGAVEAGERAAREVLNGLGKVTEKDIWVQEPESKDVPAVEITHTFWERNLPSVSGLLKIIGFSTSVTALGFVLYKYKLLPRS
Method: Recombinant hMAO-A and hMAO-B activities were assayed while using kynuramine (0.06 mM) and benzylamine (0.3 mM) as substrates, respectively, as described previously. […] AChE activity was measured using Type VI-S from Electrophorus electricus in the presence of 0.5 mM 5,5’-dithiobis(2-nitrobenzoic acid) and 0.5 mM acetylthiocholine iodide, as described previously. Enzymes and chemicals were purchased from Sigma–Aldrich (St. Louis, MO, USA).
AChE inhibitory activities were also determined, except at a concentration of 10 µM. […] Kinetic experiments were carried out at five substrate and three inhibitor concentrations.

MAO-B = biological target: T2, MAO-B (Homo sapiens, UniProt P27338); assay: biochemical; conditions: for SI (selectivity index, ratio of IC50 MAO-A to MAO-B): MAO-A vs. MAO-B IC50 ratio; for IC50: mean ± standard error of duplicates, reference compounds after 30 min preincubation with enzyme, read-out: IC50 (µM) MAO-B; for remaining activity at 1 µM: read-out: Residual Activity (%) MAO-B (1.0 µM)
T2 construct: purchased Sigma-Aldrich
T2 sequence (P27338 1-520): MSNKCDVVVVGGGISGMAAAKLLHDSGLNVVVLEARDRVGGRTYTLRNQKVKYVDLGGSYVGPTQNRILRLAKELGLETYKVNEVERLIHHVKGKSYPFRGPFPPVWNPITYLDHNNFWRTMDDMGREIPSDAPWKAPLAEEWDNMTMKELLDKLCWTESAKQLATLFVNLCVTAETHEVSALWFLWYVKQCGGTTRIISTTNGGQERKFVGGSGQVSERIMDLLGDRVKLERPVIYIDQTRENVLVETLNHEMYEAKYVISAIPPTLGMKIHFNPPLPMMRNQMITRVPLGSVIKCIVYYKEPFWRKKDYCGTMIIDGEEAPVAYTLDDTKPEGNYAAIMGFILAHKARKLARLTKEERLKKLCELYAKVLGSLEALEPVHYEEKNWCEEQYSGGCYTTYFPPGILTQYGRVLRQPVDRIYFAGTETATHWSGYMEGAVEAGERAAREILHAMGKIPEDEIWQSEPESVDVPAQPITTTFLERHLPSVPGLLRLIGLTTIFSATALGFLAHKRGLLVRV
Method: Recombinant hMAO-A and hMAO-B activities were assayed while using kynuramine (0.06 mM) and benzylamine (0.3 mM) as substrates, respectively, as described previously. […] AChE activity was measured using Type VI-S from Electrophorus electricus in the presence of 0.5 mM 5,5’-dithiobis(2-nitrobenzoic acid) and 0.5 mM acetylthiocholine iodide, as described previously. Enzymes and chemicals were purchased from Sigma–Aldrich (St. Louis, MO, USA). […]

[1] = biological target: T3, AChE (Type VI-S from Electrophorus electricus) (Electrophorus electricus, UniProt O42275); assay: AChE inhibition assay (DTNB / acetylthiocholine iodide); format: biochemical; conditions: for remaining activity at 10 µM / Residual Activity (%) AChE (10 µM): mean ± standard error of duplicate experiments
T3 construct: purchased Sigma-Aldrich Type VI-S
T3 sequence (O42275 24-633): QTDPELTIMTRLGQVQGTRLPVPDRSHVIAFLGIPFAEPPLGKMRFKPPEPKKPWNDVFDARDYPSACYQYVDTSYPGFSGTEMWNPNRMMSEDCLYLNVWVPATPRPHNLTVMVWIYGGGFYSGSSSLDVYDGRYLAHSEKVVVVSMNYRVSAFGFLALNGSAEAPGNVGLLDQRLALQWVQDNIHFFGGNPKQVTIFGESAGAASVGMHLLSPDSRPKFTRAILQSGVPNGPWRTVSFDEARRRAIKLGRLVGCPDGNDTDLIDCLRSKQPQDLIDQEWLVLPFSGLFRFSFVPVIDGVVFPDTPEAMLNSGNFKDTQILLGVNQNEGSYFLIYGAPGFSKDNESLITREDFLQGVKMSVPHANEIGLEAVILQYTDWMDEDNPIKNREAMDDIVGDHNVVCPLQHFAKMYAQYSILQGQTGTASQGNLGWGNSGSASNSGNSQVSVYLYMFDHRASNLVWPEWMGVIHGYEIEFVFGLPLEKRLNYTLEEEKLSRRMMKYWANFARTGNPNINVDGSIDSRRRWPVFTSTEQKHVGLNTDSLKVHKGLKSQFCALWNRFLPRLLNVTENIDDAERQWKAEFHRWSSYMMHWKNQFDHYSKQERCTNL
Method: AChE activity was measured using Type VI-S from Electrophorus electricus in the presence of 0.5 mM 5,5’-dithiobis(2-nitrobenzoic acid) and 0.5 mM acetylthiocholine iodide, as described previously. Enzymes and chemicals were purchased from Sigma–Aldrich (St. Louis, MO, USA).
Kinetic experiments were carried out at five substrate and three inhibitor concentrations.

[2] = compound at 1.0 µM, mean ± standard error of duplicate experiments, read-out: Residual Activity (%) MAO-A (1.0 µM)
[3] = compound at 10 µM, read-out: Residual Activity (%) AChE (10 µM)
[4] = read-out: Residual Activity (%) MAO-A (1.0 µM), compound at 1.0 µM, mean ± standard error of duplicate experiments
[5] = compound at 1.0 µM, mean ± standard error of duplicate experiments

| SMILES | remaining activity at 1 µM (recombinant hMAO-A; [2]) | IC50 (recombinant hMAO-A) | SI (selectivity index, ratio of IC50 MAO-A to MAO-B) (MAO-B) | IC50 (MAO-B) | remaining activity at 1 µM (MAO-B) | IC50 [1] | remaining activity at 10 µM [1, 3] | remaining activity at 1 µM (recombinant hMAO-A; [4]) | remaining activity at 10 µM ([1]; read-out: Residual Activity (%) AChE (10 µM), compound at 10 µM) | Residual Activity (%) AChE (10 µM) ([1]; compound at 10 µM) | MAO-B potency relative to clorgyline (times more potent) (MAO-B) | MAO-B potency relative to lazabemide (times more potent) (MAO-B) | remaining activity at 1 µM (MAO-B; [5]) | Residual Activity (%) MAO-A (1.0 µM) (recombinant hMAO-A; compound at 1.0 µM, mean ± standard error of duplicate experiments, 1 µM) | MAO-A potency relative to pargyline (times more potent) (recombinant hMAO-A; ratio of IC50 values) | MAO-A potency relative to toloxatone (times more potent) (recombinant hMAO-A; ratio of IC50 values) |
| --- | --- | --- | --- | --- | --- | --- | --- | --- | --- | --- | --- | --- | --- | --- | --- | --- |
| COc1ccc(C(=O)/C=C/c2ccc(O/N=C(\C)c3ccccc3)cc2)cc1 [COE-1] | 94.4 ± 2.99% | > 10 µM | >35.7 | 0.28 ± 0.041 µM | 29.9 ± 5.25% | > 40 µM | 77.6 ± 2.64% | – | – | – | – | – | – | – | – | – |
| COc1ccc(C(=O)/C=C/c2ccc(O/N=C(\C)c3ccc(OC)cc3)cc2)cc1 [COE-2] | 69.9 ± 0.51% | > 10 µM | >38.5 | 0.26 ± 0.055 µM | 27.6 ± 2.44% | 15.2 ± 0.55 µM | 66.5 ± 3.36% | – | – | – | – | – | – | – | – | – |
| COc1ccc(C(=O)/C=C/c2ccc(ON=C(c3ccccc3)c3ccccc3)cc2)cc1 [COE-3] | 87.3 ± 1% | > 10 µM | >208.3 | 0.048 ± 0.021 µM | 21.6 ± 4.88% | > 40 µM | 77.1 ± 0.66% | – | – | – | – | – | – | – | – | – |
| COc1ccc(C(=O)/C=C/c2ccc(O/N=C3\CCc4ccccc43)cc2)cc1 [COE-4] | – | 19.3 ± 0.21 µM | 32.7 | 0.059 ± 0.012 µM | 4.31 ± 1.22% | > 40 µM | – | 83.7 ± 1.54% | 62.1 ± 1.51% | – | – | – | – | – | – | – |
| C/C(=N\Oc1ccc(/C=C/C(=O)c2ccccc2)cc1)c1ccc(F)cc1 [COE-5] | 95.1 ± 2.68% | > 10 µM | >8.9 | 1.12 ± 0.1 µM | 57.5 ± 7.01% | 7.06 ± 1.5 µM | < 50% | – | – | 46.5 ± 0.71% | – | – | – | – | – | – |
| O=C(/C=C/c1ccc(ON=C(c2ccccc2)c2ccccc2)cc1)c1ccc(F)cc1 [COE-7] | 91.7 ± 6.43% | 11 ± 1.22 µM | 392.9 | 0.028 ± 0.0016 µM | 2.48 ± 0.15% | > 40 µM | 76.2 ± 1.02% | – | – | – | 68 times and 67 times | 1.5 times | – | – | – | – |
| COc1cccc(C(=O)/C=C/c2ccc(O/N=C(\C)c3cccc4ccccc34)cc2)c1 [COE-8] | 68.6 ± 2.74% | 7.68 ± 0.34 µM | 182.9 | 0.042 ± 0.021 µM | – | > 40 µM | 70.7 ± 3.26% | – | – | – | – | – | 10.5 ± 0.21% | – | – | – |
| C/C(=N\Oc1ccc(/C=C/C(=O)c2cccc3ccccc23)cc1)c1cccs1 [COE-9] | – | 7.64 ± 0.16 µM | 20.6 | 0.037 ± 0.0057 µM | 9.91 ± 1.83% | 8.39 ± 2.14 µM | < 50% | 71.4 ± 0.51% | – | 46.7 ± 4.27% | – | – | – | – | – | – |
| COc1ccc(/C=C/C(=O)c2ccc(ON=C3CCCCC3)cc2)cc1 [COE-10] | 67.1 ± 2.02% | > 10 µM | >47.6 | 0.21 ± 0.01 µM | 21.6 ± 1.22% | 9.42 ± 0.031 µM | < 50% | – | – | 47.6 ± 0.93% | – | – | – | – | – | – |
| COc1ccc(/C=C/C(=O)c2ccc(O/N=C(\C)c3ccc(F)cc3)cc2)cc1 [COE-11] | 86 ± 6.58% | > 10 µM | >5.5 | 1.82 ± 0.022 µM | 68.5 ± 1.83% | > 40 µM | 87.2 ± 0.47% | – | – | – | – | – | – | – | – | – |
| Cc1ccc(/C=C/C(=O)c2ccc(O/N=C3\CCc4ccccc43)cc2)cc1 [COE-12] | 95.7 ± 2.02% | > 10 µM | >37.0 | 0.27 ± 0.056 µM | – | > 40 µM | 72 ± 1.95% | – | – | – | – | – | 40.5 ± 0.1% | – | – | – |
| COc1cccc(/C=C/C(=O)c2ccc(O/N=C(\C)c3cccs3)cc2)c1 [COE-13] | < 50% | 0.88 ± 0.03 µM | 6.8 | 0.13 ± 0.0069 µM | 31.9 ± 9.75% | > 40 µM | 57.6 ± 1.96% | – | – | – | – | – | – | 46.2 ± 1.07% | 2.8 times | 1.1 times |
| COc1ccc(/C=C/C(=O)c2ccc(O/N=C(\C)c3cccc4ccccc34)cc2)cc1OC [COE-14] | 91.1 ± 3.84% | > 10 µM | >6.3 | 1.58 ± 0.031 µM | 63.7 ± 1.39% | 13.2 ± 0.84 µM | 62.2 ± 4.19% | – | – | – | – | – | – | – | – | – |
| COc1cc(/C=C/C(=O)c2ccc(ON=C(c3ccccc3)c3ccccc3)cc2)cc(OC)c1OC [COE-15] | 95 ± 3.03% | > 10 µM | >10.5 | 0.95 ± 0.029 µM | 36.9 ± 9.49% | > 40 µM | 56.9 ± 1.4% | – | – | – | – | – | – | – | – | – |
| COc1ccc(C(/C=C/c2ccccc2)=N\Oc2ccc(C(C)=O)cc2)cc1 [COE-16] | 93.4 ± 3.44% | > 10 µM | – | > 10 µM | 97.8 ± 0.08% | > 40 µM | 77.3 ± 6.62% | – | – | – | – | – | – | – | – | – |
